Among the data in patent publication US9920050B2, “Fused heterocyclic compound and pest control use thereof” (Sumitomo Chemical Company, Limited, priority 2013, dated 2018) are death rate values, retold here.

Common to all, as to assay type: in vivo
For assay [1], the system named is Blattella germanica. The assay is described as follows: Test Example 9: treated filter paper with sucrose bait, Blattella germanica. The conditions noted are these: 500 ppm, 0.7 ml on filter paper, male imagoes, after 6 days. On the procedure:
The formulations of Compounds of Present Invention 9, 15 to 16, 19, 22, 30 to 32, 34, 41 and 45 to 46 as produced in Formulation Example 5 were diluted with water, so as to have a concentration of the active ingredient of 500 ppm, to prepare each test drug solution.
(§1) A filter paper having a diameter of 5.5 cm was spread on the bottom of a polyethylene cup having the same diameter and 0.7 ml of the test drug solution was added dropwise onto the filter paper, and 30 mg of sucrose was uniformly placed as bait. Into the polyethylene cup, 2 male imagoes of Blattella germanica were released, and the cup was sealed with a lid. After 6 days, the life and death of Blattella germanica was examined, the number of dead insects was counted, and the death rate was calculated according to the following equation. Death rate (%)=(Number of dead insects/Number of tested insects)×100

Assay [2] has as its system Musca domestica. The assay is described as follows: Test Example 8: treated filter paper with sucrose bait, Musca domestica. As to conditions: 500 ppm, 0.7 ml on filter paper, female imagoes, after 24 hours. On the procedure:
The formulations of Compounds of Present Invention 1, 9, 15 to 16, 19, 22, 24, 31 to 32, 34, 41 and 45 to 46 as produced in Formulation Example 5 were diluted with water, so as to have a concentration of the active ingredient of 500 ppm, to prepare each test drug solution.
as §1, with “10 female” for “2 male”, “Musca domestica” for “Blattella germanica”, “24 hours,” for “6 days,”

The test system of assay [3] is Haemaphysalis longicornis. The assay is described as follows: Test Example 11: coated screw tube contact test, Haemaphysalis longicornis ticks. The conditions noted are these: 2 mg compound coated on inner wall of screw tube, unfed nymphal ticks, after 2 days. The method, then:
Two milligrams of each of Compounds of Present Invention 8 to 9, 20, 22 and 31 to 32 was weighed out in a screw tube (Maruemu No. 5; 27×55 mm), and 0.2 mL of acetone was added thereto, and the screw tube was sealed with a cap to dissolve the compound. The screw tube was rotated and inverted to uniformly coat the drug solution onto the whole inner wall of the tube. After removing the cap, the solution was air-dried for about 2 hours, then unfed nymphal ticks, Haemaphysalis longicornis (5 ticks/group) were released, and the tube was sealed with the cap. After 2 days, the number of dead insects was counted, and the death rate was calculated according to the following equation: Death rate (%)=100×(Number of dead insects/Number of tested insects)

`CCS(=O)(=O)c1cc(NC2CC2)cnc1-c1nc2cc(C(F)(F)F)cnc2n1C` [compound 9]: the death rate in assay [1], in assay [2] and in assay [3] was 100% throughout. Turning to `CCS(=O)(=O)c1ccc(NOC)nc1-c1nc2cc(C(F)(F)F)cnc2n1C` [compound 30], in assay [1], the death rate was determined as 100%. As for `CCS(CC)=Nc1ccc(S(=O)(=O)CC)c(-c2nc3cc([S+]([O-])C(F)(F)F)ccc3o2)n1` (stereo not drawn) [compound 41], the death rate in assay [1] and in assay [2] was 100% each time. For the molecule `CCS(=O)(=O)c1cc(NNC(=O)OC)cnc1-c1nc2cc(C(F)(F)F)cnc2n1C` [compound 15], the death rate in assay [1] and in assay [2] was 100% in each case. `CCS(=O)(=O)c1cc(NC(=O)c2ccccn2)cnc1-c1nc2cc(C(F)(F)F)cnc2n1C` [compound 24]: in assay [2], the death rate was determined as 100%.

In the case of `CCS(=O)(=O)c1ccc(NCc2ccccc2)nc1-c1nc2cc([S+]([O-])C(F)(F)F)ccc2o1` (stereo not drawn) [compound 34], the death rate in assay [1] and in assay [2] was 100% each time.

As for `CCS(=O)(=O)c1ccc(NC2CC2)nc1-c1nc2cc([S+]([O-])C(F)(F)F)ccc2o1` (stereo not drawn) [compound 32], the death rate in assay [1], in assay [2] and in assay [3] was 100% throughout. Consider `CCS(=O)(=O)c1ccc(NC2CC2)nc1-c1nc2cc(C(F)(F)F)cnc2n1C` [compound 31], for which the death rate in assay [2] and in assay [3] was 100% in each case. As to `CCS(=O)(=O)c1cc(NN)cnc1-c1nc2cc(C(F)(F)F)cnc2n1C` [compound 19], the death rate in assay [1] and in assay [2] was 100% in each case.

With `CCS(=O)(=O)c1cc(NC(=O)C2CCC2)cnc1-c1nc2cc(C(F)(F)F)cnc2n1C` [compound 8], the death rate in assay [3] was found to be 100%.

Take `CCS(=O)(=O)c1cc(NC(=O)C(=O)N(C)C)cnc1-c1nc2cc(C(F)(F)F)cnc2n1C` [compound 16]: the death rate in assay [1] and in assay [2] was 100% in each case. In the case of `CCS(=O)(=O)c1cc(NC(=O)OCc2ccccc2)cnc1-c1nc2cc(C(F)(F)F)cnc2n1C` [compound 1], the death rate in assay [2] is listed as 100%. In assay [3], `CCS(=O)(=O)c1cc(NCC2CCOC2)cnc1-c1nc2cc(C(F)(F)F)cnc2n1C` (stereo not drawn) [compound 20] came in with a death rate of 100%. In the case of `CCS(=O)(=O)c1ccc(NCc2ccc(Cl)nc2)nc1-c1nc2cc([S+]([O-])C(F)(F)F)ccc2o1` (stereo not drawn) [compound 46], the death rate in assay [1] and in assay [2] was 100% in each case. For the molecule `CCS(=O)(=O)c1ccc(NC(=O)C2CC2)nc1-c1nc2cc([S+]([O-])C(F)(F)F)ccc2o1` (stereo not drawn) [compound 45], the death rate in assay [1] and in assay [2] was 100% each time. With `CCS(=O)(=O)c1cc(NC(=O)C2CC2)cnc1-c1nc2cc(C(F)(F)F)cnc2n1C` [compound 22], the death rate in assay [1], in assay [2] and in assay [3] was 100% each time.
